Measured values from the NIST ThermoML archive (doi:10.1016/j.tca.2014.06.031).

Experiments:
[1] = xn = mol fraction of the nth substance listed; details: 101 kPa, Liquid; for speed of sound: Frequency=3 MHz, Sing-around technique in a fixed-path interferometer; for mass density: Vibrating tube method
[2] = refractive index (Na D-line) (dimensionless); xn = mol fraction of the nth substance listed; details: 101 kPa, Liquid, Standard Abbe refractometry

CCCCCCC(=O)O [heptanoic acid] + CCCCC(=O)O
Details | mass density, [1] [kg/m3] | refractive index, [2] | speed of sound, [1] [m/s]
293.15 K, x1 = 0.0641 | 937.59 | 1.4099 | 1238.8
293.15 K, x1 = 0.1207 | 936.02 | 1.4111 | 1242.9
293.15 K, x1 = 0.2317 | 933.14 | 1.41293 | 1250.6
293.15 K, x1 = 0.3413 | 930.46 | 1.41469 | 1257.9
293.15 K, x1 = 0.4383 | 928.25 | 1.41617 | 1264.1
293.15 K, x1 = 0.5402 | 926.08 | 1.4176 | 1270.3
293.15 K, x1 = 0.6442 | 923.97 | 1.41903 | 1276.3
293.15 K, x1 = 0.7342 | 922.25 | 1.42021 | 1281.4
293.15 K, x1 = 0.8259 | 920.58 | 1.42135 | 1286.4
293.15 K, x1 = 0.9173 | 919 | 1.42244 | 1291.2
293.15 K, x1 = 0.962 | 918.26 | 1.42297 | 1293.4
293.15 K, x1 = 1 | 917.65 | 1.42336 | 1295.4
298.15 K, x1 = 0.0641 | 933.06 | 1.40789 | 1220.8
298.15 K, x1 = 0.1207 | 931.51 | 1.40904 | 1225
298.15 K, x1 = 0.2317 | 928.68 | 1.41092 | 1232.8
298.15 K, x1 = 0.3413 | 926.05 | 1.41267 | 1240.1
298.15 K, x1 = 0.4383 | 923.88 | 1.41413 | 1246.3
298.15 K, x1 = 0.5402 | 921.74 | 1.41562 | 1252.5
298.15 K, x1 = 0.6442 | 919.68 | 1.41705 | 1258.6
298.15 K, x1 = 0.7342 | 917.98 | 1.4182 | 1263.7
298.15 K, x1 = 0.8259 | 916.35 | 1.41936 | 1268.7
298.15 K, x1 = 0.9173 | 914.79 | 1.42048 | 1273.5
298.15 K, x1 = 0.962 | 914.07 | 1.42099 | 1275.8
298.15 K, x1 = 1 | 913.47 | 1.42138 | 1277.7
303.15 K, x1 = 0.0641 | 928.52 | 1.40585 | 1202.7
303.15 K, x1 = 0.1207 | 926.99 | 1.40698 | 1206.9
303.15 K, x1 = 0.2317 | 924.22 | 1.40886 | 1214.7
303.15 K, x1 = 0.3413 | 921.64 | 1.41062 | 1222.1
303.15 K, x1 = 0.4383 | 919.51 | 1.41208 | 1228.3
303.15 K, x1 = 0.5402 | 917.4 | 1.41356 | 1234.6
303.15 K, x1 = 0.6442 | 915.38 | 1.41498 | 1240.7
303.15 K, x1 = 0.7342 | 913.71 | 1.4162 | 1245.8
303.15 K, x1 = 0.8259 | 912.11 | 1.41733 | 1250.8
303.15 K, x1 = 0.9173 | 910.58 | 1.41842 | 1255.7
303.15 K, x1 = 0.962 | 909.87 | 1.41896 | 1257.9
303.15 K, x1 = 1 | 909.29 | 1.41935 | 1259.9
308.15 K, x1 = 0.0641 | 923.98 | 1.40383 | 1184.8
308.15 K, x1 = 0.1207 | 922.48 | 1.40496 | 1189
308.15 K, x1 = 0.2317 | 919.75 | 1.40684 | 1196.9
308.15 K, x1 = 0.3413 | 917.23 | 1.40857 | 1204.2
308.15 K, x1 = 0.4383 | 915.14 | 1.41004 | 1210.5
308.15 K, x1 = 0.5402 | 913.07 | 1.41151 | 1216.8
308.15 K, x1 = 0.6442 | 911.08 | 1.41294 | 1223
308.15 K, x1 = 0.7342 | 909.45 | 1.41413 | 1228.1
308.15 K, x1 = 0.8259 | 907.87 | 1.41531 | 1233.1
308.15 K, x1 = 0.9173 | 906.38 | 1.41643 | 1238
308.15 K, x1 = 0.962 | 905.68 | 1.41695 | 1240.3
308.15 K, x1 = 1 | 905.11 | 1.41733 | 1242.2
313.15 K, x1 = 0.0641 | 919.44 | 1.40175 | 1167
313.15 K, x1 = 0.1207 | 917.97 | 1.40283 | 1171.2
313.15 K, x1 = 0.2317 | 915.29 | 1.40471 | 1179.1
313.15 K, x1 = 0.3413 | 912.82 | 1.40649 | 1186.6
313.15 K, x1 = 0.4383 | 910.77 | 1.40796 | 1192.9
313.15 K, x1 = 0.5402 | 908.74 | 1.40944 | 1199.2
313.15 K, x1 = 0.6442 | 906.79 | 1.41086 | 1205.4
313.15 K, x1 = 0.7342 | 905.19 | 1.41209 | 1210.5
313.15 K, x1 = 0.8259 | 903.64 | 1.41324 | 1215.6
313.15 K, x1 = 0.9173 | 902.17 | 1.41437 | 1220.4
313.15 K, x1 = 0.962 | 901.49 | 1.4149 | 1222.7
313.15 K, x1 = 1 | 900.94 | 1.4153 | 1224.7

CCCCC(=O)O [pentanoic acid] + CCCC(=O)O
Details | mass density, [1] [kg/m3] | refractive index, [2] | speed of sound, [1] [m/s]
293.15 K, x2 = 0 | 939.41 | 1.4084 | 1234
293.15 K, x2 = 0.0472 | 940.14 | 1.40813 | 1232.3
293.15 K, x2 = 0.0938 | 940.86 | 1.4077 | 1230.6
293.15 K, x2 = 0.1944 | 942.46 | 1.40676 | 1226.9
293.15 K, x2 = 0.2928 | 944.08 | 1.40581 | 1223.3
293.15 K, x2 = 0.3946 | 945.82 | 1.40481 | 1219.5
293.15 K, x2 = 0.4922 | 947.56 | 1.40383 | 1215.8
293.15 K, x2 = 0.5938 | 949.45 | 1.40278 | 1211.9
293.15 K, x2 = 0.6929 | 951.38 | 1.40174 | 1208
293.15 K, x2 = 0.7973 | 953.48 | 1.4006 | 1203.8
293.15 K, x2 = 0.895 | 955.52 | 1.39949 | 1199.9
298.15 K, x2 = 0 | 934.85 | 1.40641 | 1216
298.15 K, x2 = 0.0472 | 935.55 | 1.40607 | 1214.3
298.15 K, x2 = 0.0938 | 936.26 | 1.40563 | 1212.6
298.15 K, x2 = 0.1944 | 937.82 | 1.40469 | 1208.9
298.15 K, x2 = 0.2928 | 939.4 | 1.40374 | 1205.2
298.15 K, x2 = 0.3946 | 941.11 | 1.40274 | 1201.4
298.15 K, x2 = 0.4922 | 942.81 | 1.40175 | 1197.6
298.15 K, x2 = 0.5938 | 944.66 | 1.4007 | 1193.6
298.15 K, x2 = 0.6929 | 946.54 | 1.39965 | 1189.7
298.15 K, x2 = 0.7973 | 948.6 | 1.3985 | 1185.4
298.15 K, x2 = 0.895 | 950.6 | 1.39744 | 1181.4
303.15 K, x2 = 0 | 930.29 | 1.40438 | 1197.9
303.15 K, x2 = 0.0472 | 930.96 | 1.40399 | 1196.2
303.15 K, x2 = 0.0938 | 931.65 | 1.40355 | 1194.5
303.15 K, x2 = 0.1944 | 933.18 | 1.4026 | 1190.7
303.15 K, x2 = 0.2928 | 934.73 | 1.40164 | 1187
303.15 K, x2 = 0.3946 | 936.39 | 1.40063 | 1183.1
303.15 K, x2 = 0.4922 | 938.05 | 1.39964 | 1179.3
303.15 K, x2 = 0.5938 | 939.87 | 1.39857 | 1175.2
303.15 K, x2 = 0.6929 | 941.71 | 1.39751 | 1171.2
303.15 K, x2 = 0.7973 | 943.73 | 1.39639 | 1166.9
303.15 K, x2 = 0.895 | 945.68 | 1.39533 | 1162.8
308.15 K, x2 = 0 | 925.73 | 1.40234 | 1179.9
308.15 K, x2 = 0.0472 | 926.37 | 1.4019 | 1178.2
308.15 K, x2 = 0.0938 | 927.04 | 1.40146 | 1176.5
308.15 K, x2 = 0.1944 | 928.53 | 1.40051 | 1172.7
308.15 K, x2 = 0.2928 | 930.05 | 1.39955 | 1168.9
308.15 K, x2 = 0.3946 | 931.68 | 1.39853 | 1164.9
308.15 K, x2 = 0.4922 | 933.3 | 1.39753 | 1161
308.15 K, x2 = 0.5938 | 935.08 | 1.39646 | 1156.9
308.15 K, x2 = 0.6929 | 936.87 | 1.39541 | 1152.9
308.15 K, x2 = 0.7973 | 938.85 | 1.39431 | 1148.5
308.15 K, x2 = 0.895 | 940.76 | 1.39326 | 1144.3
313.15 K, x2 = 0 | 921.16 | 1.4003 | 1162.1
313.15 K, x2 = 0.0472 | 921.78 | 1.39983 | 1160.4
313.15 K, x2 = 0.0938 | 922.44 | 1.39937 | 1158.6
313.15 K, x2 = 0.1944 | 923.89 | 1.39841 | 1154.8
313.15 K, x2 = 0.2928 | 925.37 | 1.39745 | 1151
313.15 K, x2 = 0.3946 | 926.97 | 1.39642 | 1146.9
313.15 K, x2 = 0.4922 | 928.55 | 1.39542 | 1143
313.15 K, x2 = 0.5938 | 930.29 | 1.39437 | 1138.9
313.15 K, x2 = 0.6929 | 932.04 | 1.39332 | 1134.7
313.15 K, x2 = 0.7973 | 933.98 | 1.39222 | 1130.2
313.15 K, x2 = 0.895 | 935.84 | 1.39118 | 1126
